Data published in patent US20050004011A1, “Compositions and methods for treating bacterial infections with protein-dalbavancin complexes” (priority 2002, published 2005).
Values joined by “and” are separate entries in the source; they are usually repeats but may differ in a detail not shown here. Equal entries are not always repeated. Where two headings read alike, the source gives them in different places.

What was measured:
[1] = tested on: Group B streptococcus; experiment: Dalbavancin MIC of baseline isolates; type: cell-based
[2] = tested on: Gram-positive isolates, including MRSA; experiment: MIC against Gram-positive isolates / SSTI pathogens; type: cell-based; conditions: FU assessment
[3] = ESI-MS of multimers in solution
Procedure: Experiments were performed using an Applied Biosystem API III+mass spectrometer equipped with a TurboIonSpray source, a Triple Quadrupole analyzer, operating in positive ion mode.
The mass spectra were obtained in electrospray positive mode on a Finnigan LCQDeca ion trap instrument previously tuned and calibrated in electrospray mode using Ultramark 1621, caffeine and MRFA (L-metionyl-arginyl-phenilalanyl-arginine).
The mass spectra were obtained in electrospray positive mode on a Finnigan LCQ^Deca ion trap instrument previous tuned and calibrated in electrospray mode using Ultramark 1621, caffeine and MRFA (L-metionyl-arginyl-phenilalanyl-arginine).

[4] = tested on: N,N′-diacetyl-Lys-D-Ala-D-Ala; experiment: ITC of binding to tri-peptide, with and without HSA
[5] = tested on: skin and soft tissue infections (SSTI); experiment: Phase II trial in deep skin and soft tissue infections: clinical response; type: in vivo, human
Procedure: (§1) This randomized, controlled study evaluated the safety and efficacy of two dose regimens of dalbavancin.
(§2) There were 62 patients randomized into the study; all received at least one dose of study medication. Four study populations were evaluated for safety and efficacy and were defined as follows: The intent-to-treat (ITT) population included all patients who received at least one dose of study drug (all randomized study subjects).
The effectiveness of the three treatment regimens was determined by assessing the patients' clinical response and the documented or presumed microbiological responses. The primary efficacy endpoint was clinical response at the follow-up visit for the clinically evaluable population. Clinical response, for both EOT and FU visits, was categorized as success (cure or improvement) or failure (including indeterminate results). Patients classified as successes must not have received additional systemic antibacterial treatment for their infection. Failure was defined as persistence of one or more local or systemic signs and symptoms of SSTI such that treatment with new or additional systemic antibacterial agents was required for the SSTI.

[6] = Phase II SSTI trial: dalbavancin plasma concentrations; type: in vivo, human; conditions: for Mean dalbavancin plasma concentration: two-dose regimen
[7] = tested on: S. aureus; experiment: Dalbavancin MIC of baseline isolates; type: cell-based; conditions: All S. aureus
[8] = Pharmacokinetics and renal excretion in healthy subjects; type: in vivo, human
Procedure: Blood samples were drawn into heparinized tubes and centrifuged. Plasma was separated and stored frozen at −20° C. until time of assay. Plasma and urine samples were assayed for dalbavancin using validated LC/MS/MS methods. […] The peak concentration (Cmax) values were obtained directly from the observed data. The area under the plasma concentration-time curve (AUC) was calculated using the linear trapezoidal rule. Clearance (CL) was computed as dose/AUC. The elimination half life (t1/2) was estimated by linear regression of the log-linear portion of the log concentration versus time curve. Estimates of the volume of distribution (Vz) was calculated using the regression parameters, while the volume of distribution at steady state (Vss) was calculated from the area under the first moment curve (AUMC) multiplied by the dose and divided by AUC. The cumulative amount of dalbavancin excreted in urine was determined as the integrand of the urine excretion rate (AURC). CLR, or renal clearance, was calculated as the ratio: CLR=AURC/AUC.

[9] = Stability of dalbavancin in plasma; type: in vitro ADME, human
Procedure: A quality control standard of 1.5 μg/ml was prepared by spiking human plasma with an appropriate volume of a 50 μg/ml solution.

[10] = tested on: Gram-positive pathogen identified at baseline; experiment: Phase II SSTI trial: microbiological response; type: in vivo, human; conditions: for Success rate by pathogen: MITT at FU; for Microbiologic success rate: MITT population; for Eradication/presumed eradication rate, all organisms / S. aureus eradication rate: microbiologically-evaluable population at FU
Procedure: as §1, §2
Microbiological outcome, a secondary efficacy variable, was assessed in the subpopulation of patients who had microbiologically documented SSTI (i.e., at least one identified baseline pathogen). A microbiologic response was assessed for each Gram-positive pathogen identified at baseline (i.e., eradication, presumed eradication, persistence, presumed persistence). For patients for whom follow-up cultures were not performed, the microbiologic responses for baseline pathogens were presumed on the basis of the clinical response. Microbiologic response by patient at the EOT and FU visits was graded as success (i.e., all Gram-positive organisms eradicated or presumed eradicated) or failure (i.e., at least one Gram-positive organism persisted or presumed to have persisted, multiple pathogens with partial eradication). At both the EOT and FU visits, colonization and superinfection were assessed. At the FU visit, a patient's bacteriological response could also include recurrence.

[11] = target: human α-glycoprotein; experiment: Protein binding by isothermal titration microcalorimetry; conditions: for apparent binding affinity Ka: pH 7.4; for Calculated percent binding: α-glycoprotein […]10^−5M
Procedure: Integrated heat effects, after correction for heats of dilution, were analyzed by non-linear regression using a simple single-site binding model with the standard Microcal ORIGIN software package. Raw data (μcal/sec) for each injection were integrated to give the total heat effect per addition, then divided by amount of injectant to give kcal/mole of injectant. The same integration was applied for control dilution effects, and this was subtracted from the actual titration data. This provided a differential of the binding curve in which the extent of binding is proportional to the total heat liberated (or absorbed). This was then analyzed by non-linear regression methods in terms of various standard binding models.

[12] = Rat quantitative tissue distribution (QTD) study; type: in vivo, Sprague-Dawley rats
Procedure: Quantitative tissue distribution studies were conducted to assess the tissue distribution of dalbavancin following a single IV infusion of dalbavancin to male rats.
All samples were analyzed by LSC.

[13] = Phase II SSTI trial: adverse events; type: in vivo, human
Procedure: Each patient who received at least one dose of study drug (ITT population) was evaluated for drug safety through monitoring of adverse events (AE), including abnormal clinical laboratory test results and vital signs. AE were rated by the investigator as to their severity (mild, moderate, severe, life-threatening), and by the relationship to the study drug (not related, unlikely related, possibly related, or probably related).

[14] = MITT isolates of standard of care group
[15] = MITT isolates of two-dose group

CN[C@H]1C(=O)N[C@@H]2Cc3ccc(cc3)Oc3cc4cc(c3O[C@@H]3O[C@H](C(=O)O)[C@@H](O)[C@H](O)[C@H]3NC(=O)CCCCCCCCC(C)C)Oc3ccc(cc3Cl)[C@@H](O)[C@@H]3NC(=O)[C@H](NC(=O)[C@@H]4NC(=O)[C@@H](NC2=O)c2cc(cc(O)c2Cl)Oc2cc1ccc2O)c1ccc(O)c(c1)-c1c(O[C@H]2O[C@H](CO)[C@@H](O)[C@H](O)[C@@H]2O)cc(O)cc1[C@@H](C(=O)NCCCN(C)C)NC3=O [Dalbavancin]
Dalbavancin MIC [1, 14]: (0.016) mg/L | Dalbavancin MIC [1, 15]: (0.016) mg/L | Change in dalbavancin MIC of isolates that persisted [2]: no change | Multimers in solution (ESI-MS) [3]: presence of dalbavancin multimers | population ratio of multimer to monomer vs concentration ([3]; 20, 40, 60, and 80 μg/mL): increases with increasing concentration | population ratio of multimer to monomer vs ionic strength ([3]; ammonium formate 5, 50, 100 mM, pH 5, increase in buffer concentration): decrease | population ratio of multimer to monomer vs pH ([3]; pH 2.5 to 5.5): increases with increasing pH | weaker binding affinity than in the absence of HSA ([4]; 25° C., plateau at high HSA): 10-12 × | Kass ([4]; T 25 ° C., [HSA] 104 μM): 34900 M⁻¹ | Kass ([4]; T 25 ° C., [HSA] 288 μM): 31000 M⁻¹ | Kass ([4]; T 25 ° C., [HSA] 430 μM): 28400 M⁻¹ | Kass ([4]; T 37 ° C., [HSA] 0 μM): 130000 M⁻¹ and 110000 M⁻¹ | Kass ([4]; T 37 ° C., [HSA] 516 μM): 9568 M⁻¹ | Kd ([4]; read-out: Kdiss (preliminary experiments), absence of serum proteins, depending on temperature): 1 to 10 µM | Kd ([4]; read-out: Kdiss, T 25 ° C., [HSA] 288 μM): 32.3 µM | Kd ([4]; read-out: Kdiss, T 37 ° C., [HSA] 0 μM): 7.69 µM and 9.09 µM | Kd ([4]; read-out: Kdiss, T 37 ° C., [HSA] 516 μM): 105 µM | Clinical success rate ([5]; MITT at FU, patients with MRSA, single-dose): 50% | Clinical success rate ([5]; MITT at FU, patients with MRSA, two-dose): 80% | Clinical success rate ([5]; subanalysis: deep or complicated SSTI at baseline, single-dose): 58.3% | Clinical success rate ([5]; subanalysis: deep or complicated SSTI at baseline, two-dose): 93.8% | Mean dalbavancin plasma concentration (mean±SD) ([6]; single-dose regimen, Study day 10): 25.2 ± 4.8 mg/L | Mean dalbavancin plasma concentration ([6]; Study day 8 (prior to the second dose)): 30.4 ± 8.2 mg/L | Mean dalbavancin plasma concentration ([6]; Study day 20): 21.2 ± 10.0 mg/L | Mean dalbavancin plasma concentration ([6]; Study day 34): 9.0 ± 4.4 mg/L | Dalbavancin MIC ([7]; MITT isolates of single-dose group): (0.12) mg/L | Dalbavancin MIC range [7, 14]: (0.016-0.25) mg/L | Dalbavancin MIC [7, 15]: (0.12) mg/L | peak concentration in man ([8]; human, in vivo): ~165 µM | CLR ([8]; single 1000 mg IV, mean): 0.018 L/h | VZ ([8]; single 1000 mg IV, mean): 16.0 L | plasma concentration maintained for at least seven days ([8]; single intravenous infusion of 1000 mg): above 45 mg/l | Stability in processed plasma samples ([9]; 24 hours at room temperature): stable | Stability in human plasma, detectable concentration ([9]; three cycles of freeze-thaw, 1.5 and 90 μg/ml): stable | Success rate by pathogen ([10]; All S. aureus, single-dose (1100 mg)): 5/13 (38%) | Success rate by pathogen ([10]; All S. aureus, two-dose (1000/500 mg)): 9/11 (82%) | Microbiologic success rate ([10]; EOT, single-dose (1100 mg)): 5/14 (35.7) % | Microbiologic success rate ([10]; EOT, two-dose (1000/500 mg)): 10/13 (76.9) % | Microbiologic success rate ([10]; FU, single-dose (1100 mg)): 3/14 (21.4) % | Microbiologic success rate ([10]; FU, two-dose (1000/500 mg)): 9/13 (69.2) % | Success rate by pathogen ([10]; Methicillin-sensitive S. aureus, single-dose (1100 mg)): 2/7 (29%) | Success rate by pathogen ([10]; Methicillin-sensitive S. aureus, two-dose (1000/500 mg)): 5/6 (83%) | Success rate by pathogen ([10]; Miscellaneous streptococcus species, single-dose (1100 mg)): 2/3 (67%) | Success rate by pathogen ([10]; Miscellaneous streptococcus species, two-dose (1000/500 mg)): 4/4 (100%) | Success rate by pathogen ([10]; Total organisms, single-dose (1100 mg)): 7/16 (43.8%) | Success rate by pathogen ([10]; Total organisms, two-dose (1000/500 mg)): 14/16 (87.5%) | Eradication/presumed eradication rate, all organisms ([10]; single-dose): 58% | S. aureus eradication rate ([10]; single-dose): 50% | Eradication/presumed eradication rate, all organisms ([10]; two-dose): 92% | S. aureus eradication rate ([10]; two-dose): 90% | apparent binding affinity Ka ([11]; 25° C.): 1.84 (±0.36) ×10^5 M^−1 | apparent binding affinity Ka ([11]; 37° C.): 4.8 (±2.3) ×10^5 M^−1 | Calculated percent binding ([11]; antibiotic 1 μM): 73.0% | Calculated percent binding ([11]; antibiotic 500 μM): 5.9% | dose recovered in the bile ([12]; bile duct cannulated rats, over 384 h after the dose): ~11% | Concentrations of radioactivity in the CNS ([12]; healthy animal model): low but detectable | time by which all tissues had quantifiable drug-derived radioactivity ([12]; post-infusion, 20 mg/kg IV): ≤ 12 h | accumulation in tissue, organ or blood cellular component ([12]; rat, in vivo): did not accumulate | skin concentrations of drug-derived radioactivity ([12]; relative to plasma): as high as or higher than in plasma | Blood to plasma ratio of drug-derived radioactivity ([12]; relatively constant over time): < 1 | Clinically significant hepatotoxicity or nephrotoxicity ([13]; both dalbavancin regimens): no evidence | Tolerability ([13]; both doses): well tolerated
